A short description of data set [1]: Solubility of the compound in 50% DMSO. Format: physicochemical.
Data set [2] addresses T1, Muscarinic acetylcholine receptor M5 (Homo sapiens) (UniProt P08912).
T1 sequence (whole entry): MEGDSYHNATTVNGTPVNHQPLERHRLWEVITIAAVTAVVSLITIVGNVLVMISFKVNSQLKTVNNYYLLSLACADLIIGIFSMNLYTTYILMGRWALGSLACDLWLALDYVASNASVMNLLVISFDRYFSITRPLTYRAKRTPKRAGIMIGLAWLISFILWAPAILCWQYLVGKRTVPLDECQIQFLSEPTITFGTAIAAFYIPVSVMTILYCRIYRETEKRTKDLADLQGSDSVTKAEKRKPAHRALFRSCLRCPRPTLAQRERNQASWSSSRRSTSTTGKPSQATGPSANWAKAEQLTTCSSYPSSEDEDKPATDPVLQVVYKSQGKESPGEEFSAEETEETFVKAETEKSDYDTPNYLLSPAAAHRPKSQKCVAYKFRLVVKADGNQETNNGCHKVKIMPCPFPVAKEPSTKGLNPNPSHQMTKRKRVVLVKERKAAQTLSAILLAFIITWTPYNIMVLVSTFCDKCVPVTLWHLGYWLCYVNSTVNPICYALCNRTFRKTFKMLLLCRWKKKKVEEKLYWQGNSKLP
In words: Stimulation of human muscarinic M5 receptor expressed in mouse A9 L cells at 1 to 100 uM after 1 hr by topcount analysis. Particulars: A9L. The class given is cell-based.

Data set [3] has as its target T2, Muscarinic acetylcholine receptor M1 (Homo sapiens) (UniProt P11229).
T2 sequence (whole entry): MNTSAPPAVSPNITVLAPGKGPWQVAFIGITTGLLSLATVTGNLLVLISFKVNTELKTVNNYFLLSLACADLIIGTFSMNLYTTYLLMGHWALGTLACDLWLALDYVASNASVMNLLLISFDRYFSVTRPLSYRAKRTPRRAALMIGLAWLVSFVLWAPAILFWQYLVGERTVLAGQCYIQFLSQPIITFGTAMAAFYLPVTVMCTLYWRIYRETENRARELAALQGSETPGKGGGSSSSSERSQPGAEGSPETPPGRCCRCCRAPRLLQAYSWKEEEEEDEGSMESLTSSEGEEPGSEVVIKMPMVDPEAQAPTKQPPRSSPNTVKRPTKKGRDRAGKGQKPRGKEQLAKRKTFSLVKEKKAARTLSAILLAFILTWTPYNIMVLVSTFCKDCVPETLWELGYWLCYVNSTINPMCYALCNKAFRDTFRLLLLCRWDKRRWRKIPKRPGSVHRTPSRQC
In words: Stimulation of human muscarinic M1 receptor expressed in mouse A9 L cells at 1 to 100 uM after 1 hr by topcount analysis. Format: cell-based. The note with it: A9L.

The target of data set [4] is T2, Muscarinic acetylcholine receptor M1 (Homo sapiens). Kind of data set: Modulation of human muscarinic M1 receptor expressed in mouse A9 L cells assessed as inhibition of carbachol-induced phosphoinositide metabolism at 100 uM after 1 hr by topcount analysis. The note with it: A9L. The class given is cell-based.
In data set [5] the target is T1, Muscarinic acetylcholine receptor M5 (Homo sapiens). In words: Modulation of human muscarinic M5 receptor expressed in mouse A9 L cells assessed as inhibition of carbachol-induced phosphoinositide metabolism at 100 uM after 1 hr by topcount analysis. The class given is cell-based. Particulars: A9L.
Data set [6] addresses T2, Muscarinic acetylcholine receptor M1 (Homo sapiens). In words: Modulation of human muscarinic M1 receptor expressed in mouse A9 L cells assessed as effect on carbachol-induced phosphoinositide metabolism at 1 to 100 uM after 1 hr by topcount analysis. The note with it: A9L. Format: cell-based.
The target of data set [7] is T1, Muscarinic acetylcholine receptor M5 (Homo sapiens). Kind of data set: Modulation of human muscarinic M5 receptor expressed in mouse A9 L cells assessed as effect on carbachol-induced phosphoinositide metabolism at 1 to 100 uM after 1 hr by topcount analysis. The class given is cell-based. Particulars: A9L.
The target of data set [8] is T2, Muscarinic acetylcholine receptor M1 (Homo sapiens). In words: Modulation of human muscarinic M1 receptor expressed in mouse A9 L cells assessed as effect on carbachol-induced phosphoinositide metabolism at 1 uM by Schild plot analysis. Particulars: A9L. The class given is cell-based.
Data set [9] deals with T1, Muscarinic acetylcholine receptor M5 (Homo sapiens). In words: Modulation of human muscarinic M5 receptor expressed in mouse A9 L cells assessed as competitive inhibition of carbachol-induced phosphoinositide metabolism by Schild plot analysis. Format: cell-based. The note with it: A9L.
The target in data set [10] is T2, Muscarinic acetylcholine receptor M1 (Homo sapiens). Kind of data set: Modulation of human muscarinic M1 receptor expressed in mouse A9 L cells assessed as effect on carbachol-induced phosphoinositide metabolism at 10 to 300 uM by Schild plot analysis. Format: cell-based. Particulars: A9L.
In data set [11] the target is T1, Muscarinic acetylcholine receptor M5 (Homo sapiens). In words: Modulation of human muscarinic M5 receptor expressed in mouse A9 L cells assessed as inhibition of carbachol-induced phosphoinositide metabolism at 1 to 100 uM after 1 hr by topcount analysis. The class given is cell-based. The note with it: A9L.

The source made the active and inactive calls. No cut-off for these calls is given here.

In the case of `COc1nsnc1OCCOCCOCc1ccccc1`, the solubility result in data set [1] is recorded as “Insoluble”.

Regarding `COc1nsnc1OCC[N+](C)(C)C`, the result in data set [2] and in data set [3] was inactive. Moreover, the inhibition entry in data set [4] and in [5] was “Active” each time.

As to `COc1nsnc1OCCO`, the result in [2], in data set [6], in data set [3] and in data set [7] was inactive.

In the case of `COc1nsnc1OCCN(C)C`, the outcome in data set [2], in data set [6], in data set [8] and in data set [3] was inactive. Further, in data set [9], the inhibition result was “Dose-dependent effect”. Further, the result in [10] was Active. Moreover, in [11], the inhibition entry was “Active”.

In the case of `COc1nsnc1OCCOCCOCCOCCOc1nsnc1OC`, in data set [1], the solubility result is “Insoluble”.

For `COc1nsnc1OCCOCCOCCOCCO`, the outcome in data set [2], in data set [6], in data set [3] and in [7] was inactive.

Regarding `COc1nsnc1OCCOCCOCCO`, the result in data set [2], in data set [6], in data set [3] and in data set [7] was inactive.

For `COc1nsnc1OCCOCCOCCOc1nsnc1OC`, the solubility result in [1] is listed as “Insoluble”.

For the origin of these results see ChEMBL document CHEMBL3120118, “Evaluation of 1,2,5-thiadiazoles as modulators of M₁/M₅ muscarinic receptor subtypes” (Bioorg Med Chem, 2014).
